Consider 17 molecules from PubChem BioAssay (NCI).

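Growth conditions: 96-well plates. Treatment: test compound, 48 hours, 5 concentrations. Analysis: linear interpolation between bracketing concentrations; unreached endpoints set to highest concentration. At the TGI there is no net growth.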 Where only a bound is given, the exact number is not on record here.

The subject of one test is DLD-1 colon. The test can be described thus: NCI tumour cell line growth inhibition, 48 h.
`COc1cc([C@@H]2OCC3C(c4ccc5c(c4)OCO5)OCC32)cc(OC)c1OC` (some centres not stated) had a TGI of more than 100 µM.
In the case of `O=C1CCC23CC(C=CC=C12)n1c(=O)n(-c2ccccc2)c(=O)n13` (configuration not stated), the TGI was more than 100 µM.
`C[C@]12CC[C@H](O)CC1=CC[C@@H]1C2CC[C@]2(C)C(=O)N(N)C(=O)CC12` (some centres not stated) returned a TGI of more than 100 µM.
On to `Cc1c2cnccc2c(C)c2c1c1ccccc1n2CCCN`, for which the TGI came to 0.847 µM.
The same measure, in the same setting: the result for `N#CN=C(N(Cc1ccccc1)Cc1ccccc1)N(Cc1ccccc1)Cc1ccccc1` reads more than 100 µM; that for `[N-]=[N+]=Nc1cc(=O)oc2ccccc12`, more than 100 µM.
Regarding `CNC(=O)C(C)C1CCC2(C)C=CC(=O)C(C)=C2C1O` (configuration not stated), the TGI is more than 100 µM.
Turning to `CCN(CC)CCC(=O)Nc1ccc2c(c1)C(=O)c1ccc(NC(=O)CCN(CC)CC)cc1C2=O`, the TGI was 10.2 µM.
Same read-out and setting: next, `CC(C)CCCCCCCCCCCCC(=O)NCC(=O)NC1C(C)OC(Nc2ncnc3c2ncn3C)C(O)C1O` (configuration not stated): more than 100 µM.
Molecule `CCCCCCCCCCCOc1ccc(C(=O)C(=O)c2ccc(OCCCCCCCCCCC)c(OCCCCCCCCCCC)c2)cc1OCCCCCCCCCCC` showed a TGI of more than 100 µM.
The same measure, in the same setting: next, `CC(N)Cc1ccc(C(=O)Cl)cc1` (configuration not stated): more than 100 µM; `COc1nc(N)c(C(=O)CCl)c(=O)n1C`: 27.6 µM.
On the same count and under the same terms, next, `CC1C=C(CCCCCCCCCCCC[C@@H](O)[C@@H]2CC[C@@H]([C@@H]3CC[C@@H](C(O)CCCCCCCCCCCCC4=C[C@H](C)OC4=O)O3)O2)C(=O)O1` (some centres not stated): more than 100 µM.
Still for that read-out and setting: next, `O=C1c2ccccc2C2C1N2C(=O)C(F)(F)F` (configuration not stated): more than 100 µM; `CCOC(=O)C1=C(C)NC(=S)NC1c1ccccc1` (configuration not stated): more than 100 µM.
The molecule `CCC12C=CCN3CCC4(C(=C(C(=O)OC)[C@@H]1O)Nc1ccccc14)C32` (some centres not stated) returned a TGI of 3.36 µM.
Still for that read-out and setting: next, `CC(=O)Nc1ccc(-c2nnc(SCC(=O)Nc3ccc([N+](=O)[O-])cc3)o2)cc1`: 26.4 µM.

The subject of another test is DMS 114 small cell lung. Kind of test: NCI tumour cell line growth inhibition, 48 h.
The molecule `COc1cc([C@@H]2OCC3C(c4ccc5c(c4)OCO5)OCC32)cc(OC)c1OC` (some centres not stated) gave a TGI of more than 100 µM.
Same read-out and setting: the result for `O=C1CCC23CC(C=CC=C12)n1c(=O)n(-c2ccccc2)c(=O)n13` (configuration not stated) reads more than 100 µM; that for `Cc1c2cnccc2c(C)c2c1c1ccccc1n2CCCN`, 1.02 µM; that for `N#CN=C(N(Cc1ccccc1)Cc1ccccc1)N(Cc1ccccc1)Cc1ccccc1`, more than 100 µM.
For the molecule `[N-]=[N+]=Nc1cc(=O)oc2ccccc12`, the TGI is more than 100 µM.
Same read-out and setting: next, `CNC(=O)C(C)C1CCC2(C)C=CC(=O)C(C)=C2C1O` (configuration not stated): more than 100 µM; `CCN(CC)CCC(=O)Nc1ccc2c(c1)C(=O)c1ccc(NC(=O)CCN(CC)CC)cc1C2=O`: 13 µM; `CC(C)CCCCCCCCCCCCC(=O)NCC(=O)NC1C(C)OC(Nc2ncnc3c2ncn3C)C(O)C1O` (configuration not stated): more than 100 µM.
On the same count and under the same terms, next, `CCCCCCCCCCCOc1ccc(C(=O)C(=O)c2ccc(OCCCCCCCCCCC)c(OCCCCCCCCCCC)c2)cc1OCCCCCCCCCCC`: more than 100 µM.
Still for that read-out and setting: next, `CC(N)Cc1ccc(C(=O)Cl)cc1` (configuration not stated): more than 100 µM; `COc1nc(N)c(C(=O)CCl)c(=O)n1C`: 33.9 µM.
In turn, `CC1C=C(CCCCCCCCCCCC[C@@H](O)[C@@H]2CC[C@@H]([C@@H]3CC[C@@H](C(O)CCCCCCCCCCCCC4=C[C@H](C)OC4=O)O3)O2)C(=O)O1` (some centres not stated) yielded a TGI of more than 100 µM.
`O=C1c2ccccc2C2C1N2C(=O)C(F)(F)F` (configuration not stated) came in with a TGI of more than 100 µM.
Turning to `CCOC(=O)C1=C(C)NC(=S)NC1c1ccccc1` (configuration not stated), the TGI was more than 57.2 µM.
Take `CCC12C=CCN3CCC4(C(=C(C(=O)OC)[C@@H]1O)Nc1ccccc14)C32` (some centres not stated): the TGI stood at 3.24 µM.
Same read-out and setting: next, `CC(=O)Nc1ccc(-c2nnc(SCC(=O)Nc3ccc([N+](=O)[O-])cc3)o2)cc1`: 14.6 µM.

The next test relates to DMS 273 small cell lung. The test can be described thus: NCI tumour cell line growth inhibition, 48 h.
For `COc1cc([C@@H]2OCC3C(c4ccc5c(c4)OCO5)OCC32)cc(OC)c1OC` (some centres not stated), the TGI was more than 100 µM.
The same measure, in the same setting: next, `O=C1CCC23CC(C=CC=C12)n1c(=O)n(-c2ccccc2)c(=O)n13` (configuration not stated): more than 100 µM.
Consider `C[C@]12CC[C@H](O)CC1=CC[C@@H]1C2CC[C@]2(C)C(=O)N(N)C(=O)CC12` (some centres not stated), for which the TGI was more than 100 µM.
Still for that read-out and setting: the result for `Cc1c2cnccc2c(C)c2c1c1ccccc1n2CCCN` reads 0.619 µM; that for `[N-]=[N+]=Nc1cc(=O)oc2ccccc12`, more than 100 µM.
On the same count and under the same terms, the result for `CNC(=O)C(C)C1CCC2(C)C=CC(=O)C(C)=C2C1O` (configuration not stated) reads more than 58.1 µM; that for `CCN(CC)CCC(=O)Nc1ccc2c(c1)C(=O)c1ccc(NC(=O)CCN(CC)CC)cc1C2=O`, 3.82 µM.
On the same count and under the same terms, next, `CC(C)CCCCCCCCCCCCC(=O)NCC(=O)NC1C(C)OC(Nc2ncnc3c2ncn3C)C(O)C1O` (configuration not stated): 21.6 µM.
`CCCCCCCCCCCOc1ccc(C(=O)C(=O)c2ccc(OCCCCCCCCCCC)c(OCCCCCCCCCCC)c2)cc1OCCCCCCCCCCC` yielded a TGI of more than 100 µM.
The same measure, in the same setting: next, `CC1C=C(CCCCCCCCCCCC[C@@H](O)[C@@H]2CC[C@@H]([C@@H]3CC[C@@H](C(O)CCCCCCCCCCCCC4=C[C@H](C)OC4=O)O3)O2)C(=O)O1` (some centres not stated): more than 100 µM; `O=C1c2ccccc2C2C1N2C(=O)C(F)(F)F` (configuration not stated): more than 100 µM; `CCOC(=O)C1=C(C)NC(=S)NC1c1ccccc1` (configuration not stated): more than 100 µM.
On the same count and under the same terms, the result for `CCC12C=CCN3CCC4(C(=C(C(=O)OC)[C@@H]1O)Nc1ccccc14)C32` (some centres not stated) reads 3.37 µM.
Same read-out and setting: next, `CC(=O)Nc1ccc(-c2nnc(SCC(=O)Nc3ccc([N+](=O)[O-])cc3)o2)cc1`: 22.6 µM.

For the next test, the system named is HOP-18 NSCLC. Kind of test: NCI tumour cell line growth inhibition, 48 h.
On to `O=C1CCC23CC(C=CC=C12)n1c(=O)n(-c2ccccc2)c(=O)n13` (configuration not stated), for which the TGI was more than 100 µM.
`C[C@]12CC[C@H](O)CC1=CC[C@@H]1C2CC[C@]2(C)C(=O)N(N)C(=O)CC12` (some centres not stated): the TGI was more than 100 µM.
In turn, `Cc1c2cnccc2c(C)c2c1c1ccccc1n2CCCN` yielded a TGI of 2.65 µM.
Same read-out and setting: the result for `N#CN=C(N(Cc1ccccc1)Cc1ccccc1)N(Cc1ccccc1)Cc1ccccc1` reads more than 100 µM.
On the same count and under the same terms, the result for `[N-]=[N+]=Nc1cc(=O)oc2ccccc12` reads more than 100 µM; that for `CCN(CC)CCC(=O)Nc1ccc2c(c1)C(=O)c1ccc(NC(=O)CCN(CC)CC)cc1C2=O`, 18.4 µM; that for `CC(C)CCCCCCCCCCCCC(=O)NCC(=O)NC1C(C)OC(Nc2ncnc3c2ncn3C)C(O)C1O` (configuration not stated), more than 30.1 µM.
Still for that read-out and setting: next, `COc1nc(N)c(C(=O)CCl)c(=O)n1C`: 31.2 µM.
Turning to `CC1C=C(CCCCCCCCCCCC[C@@H](O)[C@@H]2CC[C@@H]([C@@H]3CC[C@@H](C(O)CCCCCCCCCCCCC4=C[C@H](C)OC4=O)O3)O2)C(=O)O1` (some centres not stated), the TGI was more than 100 µM.
Turning to `O=C1c2ccccc2C2C1N2C(=O)C(F)(F)F` (configuration not stated), the TGI is more than 100 µM.
Still for that read-out and setting: the result for `CCOC(=O)C1=C(C)NC(=S)NC1c1ccccc1` (configuration not stated) reads 98.4 µM; that for `CCC12C=CCN3CCC4(C(=C(C(=O)OC)[C@@H]1O)Nc1ccccc14)C32` (some centres not stated), 4.87 µM; that for `CC(=O)Nc1ccc(-c2nnc(SCC(=O)Nc3ccc([N+](=O)[O-])cc3)o2)cc1`, 29.9 µM.

In the next test the test system is KM20L2 colon. Kind of test: NCI tumour cell line growth inhibition, 48 h.
Regarding `COc1cc([C@@H]2OCC3C(c4ccc5c(c4)OCO5)OCC32)cc(OC)c1OC` (some centres not stated), the TGI was more than 100 µM.
The same measure, in the same setting: the result for `C[C@]12CC[C@H](O)CC1=CC[C@@H]1C2CC[C@]2(C)C(=O)N(N)C(=O)CC12` (some centres not stated) reads more than 100 µM; that for `Cc1c2cnccc2c(C)c2c1c1ccccc1n2CCCN`, 0.989 µM.
Molecule `N#CN=C(N(Cc1ccccc1)Cc1ccccc1)N(Cc1ccccc1)Cc1ccccc1` gave a TGI of more than 100 µM.
`CNC(=O)C(C)C1CCC2(C)C=CC(=O)C(C)=C2C1O` (configuration not stated): the TGI was more than 100 µM.
Consider `CCN(CC)CCC(=O)Nc1ccc2c(c1)C(=O)c1ccc(NC(=O)CCN(CC)CC)cc1C2=O`, for which the TGI stood at 28 µM.
On the same count and under the same terms, next, `CC(C)CCCCCCCCCCCCC(=O)NCC(=O)NC1C(C)OC(Nc2ncnc3c2ncn3C)C(O)C1O` (configuration not stated): more than 100 µM; `CCCCCCCCCCCOc1ccc(C(=O)C(=O)c2ccc(OCCCCCCCCCCC)c(OCCCCCCCCCCC)c2)cc1OCCCCCCCCCCC`: more than 100 µM; `CC(N)Cc1ccc(C(=O)Cl)cc1` (configuration not stated): more than 100 µM.
`COc1nc(N)c(C(=O)CCl)c(=O)n1C`: the TGI turned out to be 50.1 µM.
Still for that read-out and setting: the result for `CC1C=C(CCCCCCCCCCCC[C@@H](O)[C@@H]2CC[C@@H]([C@@H]3CC[C@@H](C(O)CCCCCCCCCCCCC4=C[C@H](C)OC4=O)O3)O2)C(=O)O1` (some centres not stated) reads more than 100 µM; that for `O=C1c2ccccc2C2C1N2C(=O)C(F)(F)F` (configuration not stated), more than 100 µM.
Still for that read-out and setting: next, `CCOC(=O)C1=C(C)NC(=S)NC1c1ccccc1` (configuration not stated): more than 56.5 µM.
Same read-out and setting: the result for `CCC12C=CCN3CCC4(C(=C(C(=O)OC)[C@@H]1O)Nc1ccccc14)C32` (some centres not stated) reads 3.54 µM.
`CC(=O)Nc1ccc(-c2nnc(SCC(=O)Nc3ccc([N+](=O)[O-])cc3)o2)cc1` displayed a TGI of 28.4 µM.

Another test relates to LXFL 529 NSCLC. The test can be described thus: NCI tumour cell line growth inhibition, 48 h.
For `COc1cc([C@@H]2OCC3C(c4ccc5c(c4)OCO5)OCC32)cc(OC)c1OC` (some centres not stated), the TGI is more than 100 µM.
As to `C[C@]12CC[C@H](O)CC1=CC[C@@H]1C2CC[C@]2(C)C(=O)N(N)C(=O)CC12` (some centres not stated), the TGI is more than 100 µM.
`N#CN=C(N(Cc1ccccc1)Cc1ccccc1)N(Cc1ccccc1)Cc1ccccc1` gave a TGI of more than 100 µM.
Still for that read-out and setting: next, `[N-]=[N+]=Nc1cc(=O)oc2ccccc12`: more than 100 µM; `CCN(CC)CCC(=O)Nc1ccc2c(c1)C(=O)c1ccc(NC(=O)CCN(CC)CC)cc1C2=O`: 12 µM; `CCCCCCCCCCCOc1ccc(C(=O)C(=O)c2ccc(OCCCCCCCCCCC)c(OCCCCCCCCCCC)c2)cc1OCCCCCCCCCCC`: more than 100 µM.
On the same count and under the same terms, the result for `CC(N)Cc1ccc(C(=O)Cl)cc1` (configuration not stated) reads more than 100 µM.
